Source: patent US10743540B2, “3-amino-1,2,4-triazine derivatives and their use for controlling undesired plant growth” (BAYER CROPSCIENCE AKTIENGESELLSCHAFT, priority 2016, dated 2020)

What was measured:
Format in all cases: in vivo
VERPE: Veronica persica [1] = test: Post-emergence herbicidal effect; details: application rate 320 g/ha, treated at one-leaf stage, assessed visually after about 3 weeks, 100% = plants have died
Experimental: (§1) [table] 2. Post-Emergence Herbicidal Effect and Crop Plant Compatibility Seeds of monocotyledonous and dicotyledonous weed and crop plants are laid out in sandy loam soil in wood-fiber pots, covered with soil and cultivated in a greenhouse under good growth conditions. 2 to 3 weeks after sowing, the test plants are treated at the one-leaf stage. The compounds of the invention, formulated in the form of wettable powders (WP) or as emulsion concentrates (EC), are then sprayed onto the green parts of the plants as aqueous suspension or emulsion at a water application rate equating to 600 to 800 L/ha with addition of 0.2% wetting agent. After the test plants have been left to stand in the greenhouse under optimal growth conditions for about 3 weeks, the action of the preparations is assessed visually in comparison to untreated controls (herbicidal action in percent (%): 100% activity=the plants have died, 0% activity=like control plants).

VERPE: Veronica persica [2] = test: Pre-emergence herbicidal effect; details: application rate 320 g/ha, scored visually after 3 weeks, 100% = plants have died, 0% = like control plants
Text: (§2) 1. Pre-Emergence Herbicidal Effect and Crop Plant Compatibility Seeds of monocotyledonous and dicotyledonous weed plants and crop plants are laid out in sandy loam soil in wood-fiber pots and covered with soil. The compounds of the invention, formulated in the form of wettable powders (WP) or as emulsion concentrates (EC), are then applied to the surface of the covering soil as aqueous suspension or emulsion at a water application rate equating to 600 to 800 L/ha with addition of 0.2% wetting agent. After the treatment, the pots are placed in a greenhouse and kept under good growth conditions for the trial plants. The damage to the test plants is scored visually after a test period of 3 weeks by comparison with untreated controls (herbicidal activity in percent (%): 100% activity=the plants have died, 0% activity=like control plants). [table]

STEME: Stellaria media [3] = test: Pre-emergence herbicidal effect; details: application rate 320 g/ha, scored visually after 3 weeks, 100% = plants have died, 0% = like control plants
Text: as §2

[4] = system: ECHCG: Echinochloa crus-galli; test: Pre-emergence herbicidal effect; details: application rate 320 g/ha, scored visually after 3 weeks, 100% = plants have died, 0% = like control plants
Text: as §2

[5] = system: POLCO: Polygonum convolvulus; test: Pre-emergence herbicidal effect; details: application rate 320 g/ha, scored visually after 3 weeks, 100% = plants have died, 0% = like control plants
Text: as §2

[6] = system: MATIN: Matricaria inodora; test: Pre-emergence herbicidal effect; details: application rate 320 g/ha, scored visually after 3 weeks, 100% = plants have died, 0% = like control plants
Text: as §2

[7] = system: ALOMY: Alopecurus myosuroides; test: Pre-emergence herbicidal effect; details: application rate 320 g/ha, scored visually after 3 weeks, 100% = plants have died, 0% = like control plants
Text: as §2

SETVI: Setaria viridis = test: Pre-emergence herbicidal effect; details: application rate 320 g/ha, scored visually after 3 weeks, 100% = plants have died, 0% = like control plants
Text: as §2

STEME: Stellaria media [8] = test: Post-emergence herbicidal effect; details: application rate 320 g/ha, treated at one-leaf stage, assessed visually after about 3 weeks, 100% = plants have died
Experimental: as §1

VIOTR: Viola tricolor = test: Post-emergence herbicidal effect; details: application rate 320 g/ha, treated at one-leaf stage, assessed visually after about 3 weeks, 100% = plants have died
Experimental: as §1

SMILES	Herbicidal activity with respect to [%] VERPE (VERPE: Veronica persica [1])	Herbicidal activity with respect to [%] VERPE (VERPE: Veronica persica [2])	Herbicidal activity with respect to [%] STEME (STEME: Stellaria media [3])	Herbicidal activity with respect to [%] MATIN [6]	Herbicidal activity with respect to [%] VIOTR (VIOTR: Viola tricolor)	further results
CNC(=O)c1nnc(N[C@@H]2CCCc3ccccc32)nc1N [Example 1.34, 5-Amino-N-methyl-3-[(1R)-1,2,3,4-tetrahydronaphthalen-1-ylamino]-1,2,4-triazine-6-carboxamide]	90%	–	–	–	–	–
CC(C)(C)c1nnc(NC2CCOc3ccccc32)nc1N (racemic) [Example 1.8]	–	100%	80%	–	–	–
CCOC(=O)c1nnc(N[C@@H]2CCc3ccc(C)cc32)nc1N [Example 1.74]	–	–	–	100%	–	Herbicidal activity with respect to [%] ECHCG [4]: 100%; Herbicidal activity with respect to [%] POLCO [5]: 100%; Herbicidal activity with respect to [%] ALOMY [7]: 80%; Herbicidal activity with respect to [%] SETVI (SETVI: Setaria viridis): 100%; Herbicidal activity with respect to [%] STEME (STEME: Stellaria media [8]): 100%
Nc1nc(NC2c3ccccc3CC2O)nnc1C(F)(F)F (racemic) [Example 1.84]	80%	100%	100%	–	90%	–
CC(=O)c1nnc(N[C@@H]2CCCc3ccccc32)nc1N [Example 1.30]	80%	100%	100%	100%	–	Herbicidal activity with respect to [%] ECHCG [4]: 80%; Herbicidal activity with respect to [%] POLCO [5]: 100%; Herbicidal activity with respect to [%] STEME (STEME: Stellaria media [8]): 80%
Cc1ccc2c(c1)[C@H](Nc1nnc(C(=O)NS(=O)(=O)c3ccc([N+](=O)[O-])cc3)c(N)n1)[C@@H](C)C2 [Example 1.56]	–	100%	100%	–	–	–
Nc1nc(NC2COc3ccccc32)nnc1C(F)(F)F (racemic) [Example 1.48]	80%	100%	100%	100%	–	Herbicidal activity with respect to [%] ECHCG [4]: 100%; Herbicidal activity with respect to [%] STEME (STEME: Stellaria media [8]): 100%
Clc1nnc(NC2CCCc3ccccc32)nc1NC1CC1 (racemic) [Example 1.10]	–	–	80%	–	–	–
Cc1ccc2c(c1)[C@H](Nc1nnc(C(C)(C)O)c(N)n1)[C@@H](C)C2 [Example 1.105]	80%	100%	100%	100%	90%	Herbicidal activity with respect to [%] ECHCG [4]: 100%; Herbicidal activity with respect to [%] POLCO [5]: 100%
Cc1ccc2c(c1)[C@H](Nc1nnc(C(=O)NS(=O)(=O)c3ccccc3)c(N)n1)[C@@H](C)C2 [Example 1.55]	80%	90%	100%	–	80%	–
CCOC(=O)c1nnc(N[C@@H]2CCc3ccccc32)nc1N [Example 1.33]	80%	100%	100%	100%	–	Herbicidal activity with respect to [%] ECHCG [4]: 80%; Herbicidal activity with respect to [%] POLCO [5]: 100%
Nc1nc(NC2c3ccccc3CC2O)nnc1C(F)(F)F (stereo not drawn) [Example 1.82]	–	–	–	100%	–	Herbicidal activity with respect to [%] POLCO [5]: 100%; Herbicidal activity with respect to [%] SETVI (SETVI: Setaria viridis): 100%
Cc1ccc2c(c1)[C@H](Nc1nnc(C(C)(C)C)c(N)n1)[C@@H](C)C2 [Example 1.6]	80%	100%	–	90%	80%	–
Cc1ccc2c(c1)[C@H](Nc1nnc(C(=O)O)c(N)n1)CC2 [Example 1.75]	–	–	–	–	–	Herbicidal activity with respect to [%] STEME (STEME: Stellaria media [8]): 100%
CC(C)(C)c1nnc(N[C@@H]2CCc3ccccc32)nc1N [Example 1.7]	90%	100%	–	90%	–	–
CS(=O)(=O)c1nnc(NC2c3ccccc3CC2O)nc1N (stereo not drawn) [Example 1.87]	–	90%	100%	–	–	–

SMILES	Herbicidal activity with respect to [%] VERPE (VERPE: Veronica persica [1])	Herbicidal activity with respect to [%] VERPE (VERPE: Veronica persica [2])	Herbicidal activity with respect to [%] STEME (STEME: Stellaria media [3])	Herbicidal activity with respect to [%] MATIN [6]	Herbicidal activity with respect to [%] VIOTR (VIOTR: Viola tricolor)	further results
CNC(=O)c1nnc(NC2CCc3ccccc32)nc1N (racemic) [Example 1.35]	–	100%	–	–	–	–
Cc1ccc2c(c1)[C@H](Nc1nnc(Cl)c(NC3CC3)n1)[C@@H](C)C2 [Example 1.2]	–	100%	100%	90%	–	–
CC(C)(C)c1nnc(N[C@@H]2CCCc3ccccc32)nc1N [Example 1.5]	80%	100%	–	90%	–	–
C=C(c1nnc(N[C@H]2c3cc(C)ccc3C[C@@H]2C)nc1N)C(F)(F)F [Example 1.81]	–	100%	100%	100%	80%	Herbicidal activity with respect to [%] ECHCG [4]: 100%; Herbicidal activity with respect to [%] POLCO [5]: 100%
N#Cc1nnc(N[C@@H]2CCc3ccccc32)nc1N [Example 1.38]	–	100%	100%	–	90%	Herbicidal activity with respect to [%] ECHCG [4]: 80%
CCCS(=O)(=O)NC(=O)c1nnc(N[C@H]2c3cc(C)ccc3C[C@@H]2C)nc1N [Example 1.53]	80%	100%	100%	–	–	–
N#Cc1nnc(NC2CCCc3cc(F)ccc32)nc1N (racemic) [Example 1.63]	–	–	100%	–	–	–
C=Cc1nnc(N[C@H]2c3cc(C)ccc3C[C@@H]2C)nc1N [Example 1.80]	–	100%	100%	–	100%	–
CC(=O)c1nnc(N[C@@H]2CCc3ccccc32)nc1N [Example 1.29, 1-[5-Amino-3-[(1R)-2,3-dihydro-1H-inden-1-ylamino]-1,2,4-triazin-6-yl]ethanone]	–	90%	90%	100%	80%	Herbicidal activity with respect to [%] POLCO [5]: 80%; Herbicidal activity with respect to [%] STEME (STEME: Stellaria media [8]): 90%
Cc1ccc2c(c1)[C@H](Nc1nnc(C(C)O)c(N)n1)[C@@H](C)C2 (stereo partly drawn) [Example 1.103]	90%	100%	100%	100%	90%	Herbicidal activity with respect to [%] ECHCG [4]: 100%; Herbicidal activity with respect to [%] POLCO [5]: 100%; Herbicidal activity with respect to [%] STEME (STEME: Stellaria media [8]): 80%
Clc1nnc(NC2CCOc3ccccc32)nc1NC1CC1 (racemic) [Example 1.14]	–	–	90%	–	–	–
Cc1ccc2c(c1)[C@@H](Nc1nnc(C#N)c(N)n1)CC2 [Example 1.61]	–	–	80%	–	–	–
Cc1ccc2c(c1)[C@H](Nc1nnc(C(=O)NS(=O)(=O)C(F)(F)F)c(N)n1)[C@@H](C)C2 [Example 1.57]	80%	100%	100%	–	–	–
CCOC(=O)CCNC(=O)c1nnc(N[C@H]2c3cc(C)ccc3C[C@@H]2C)nc1N [Example 1.42]	–	80%	100%	–	–	–
CCOC(=O)CNC(=O)c1nnc(N[C@H]2c3cc(C)ccc3C[C@@H]2C)nc1N [Example 1.43]	80%	100%	100%	100%	80%	–
Cc1ccc2c(c1)[C@H](Nc1nnc(-c3ccc(Cl)cc3)c(N)n1)[C@@H](C)C2 [Example 1.79, 6-(4-Chlorophenyl)-N^3-[(1R,2S)-2,6-dimethyl-2,3-dihydro-1H-inden-1-yl]-1,2,4-triazine-3,5-diamine]	–	100%	100%	–	–	–
